Assay results reported in US12582621B2, “Compositions and methods for delivering pharmaceutical agents” (Arizona Board of Regents on Behalf of the University of …, priority 2020, dated 2026).

System: radiation-induced oral mucosistis
Assay: Fractionated radiation-induced oral mucositis in mice, topical suramin
Format: in vivo, C57BL/6J mice
Conditions: 8 Gy on 5 consecutive days, topical suramin 50 mg/ml solution by intraoral swab twice daily, assessed day 7
Procedure: The head and neck region of six-week-old male and female C57BL/6J mice (4-5 mice/group/sex) were exposed to collimated fractionated radiation (8 Gy on 5 consecutive days). Topically applied suramin (50 mg/ml solution) was applied on day 1 of radiation by intraoral swab and twice daily throughout the experimental period. On day 7, all mice were euthanized and tongues were assessed for development and extent of oral mucositis ulceration on the dorsal surface of the tongue using 1% toluidine blue. Epithelial erosion and ulceration were visible as a deep blue color and ulceration area was measured using NIH Image J software. Histopathological grading (0-4 scale) using an established scale was used to assess OM staging and epithelial thinning.

Cc1ccc(C(=O)Nc2ccc(S(=O)(=O)O)c3cc(S(=O)(=O)O)cc(S(=O)(=O)O)c23)cc1NC(=O)c1cccc(NC(=O)Nc2cccc(C(=O)Nc3cc(C(=O)Nc4ccc(S(=O)(=O)O)c5cc(S(=O)(=O)O)cc(S(=O)(=O)O)c45)ccc3C)c2)c1 [suramin, Suramin]
effect on radiation-induced oral mucositis: diminishes radiation-induced oral mucosistis
